Columns and labels:
IKZF2 (Helios) = IKZF2 (Helios) (Homo sapiens, UniProt Q96SW2+Q9UKS7); assay: Screening of DC50 (nM) and Dmax (%) using WB-IKZF2 cell line (Western blot); assay type: cell-based; design: endogenous in cells; conditions: 6 hours; for DC50: class symbols, read-out: WB-IKZF2 DC 50
Procedure: Experimental Example 2. Screening of DC50 (nM) and Dmax (%) Using WB-IKZF2 Cell Line
Candidate degraders were serially diluted and treated in cells cultured in complete medium, followed by incubation for 6 hours at 37° C. in a CO2 incubator. After 6 hours, the cells were harvested and lysed in RIPA buffer (150 mM NaCl, 1% Triton X-100, 1% sodium deoxycholate, 0.1% SDS, 50 mM Tris-HCl pH 7.5, and 2 mM EDTA) containing a protease inhibitor cocktail (Roche). The mixture was vortexed every 10 minutes and incubated on ice for 30 minutes, followed by centrifugation at 13,000 rpm for 10 minutes at 4° C. to isolate proteins. The isolated proteins were quantified using the Bradford assay (Bio-Rad, 5000006). Proteins were separated on 8% SDS-polyacrylamide gel, transferred onto nitrocellulose membranes (Amersham, 10600002), and incubated with primary antibodies at 4° C. for 18 hours. The following primary antibodies were used: anti-Helios rabbit monoclonal antibody (Cell Signaling, 42427, 1:3000) and anti-β-actin mouse monoclonal antibody (Santa Cruz, sc-47778, 1:5000). β-actin was used as a loading control. The next day, the membranes were washed with 1×TBST for 30 minutes and incubated with HRP-conjugated secondary antibodies corresponding to the primary antibodies at room temperature for 1 hour. The following secondary antibodies were used: anti-mouse IgG HRP-linked antibody (Sigma, A9044, 1:5000) and anti-rabbit IgG HRP-linked antibody (Cell Signaling, 7074, 1:5000). After washing with 1×TBST for 30 minutes, protein expression was visualized using the Pierce ECL Western blotting substrate (Thermo Fisher, 32106), and images were captured using a chemiluminescence image analysis system (GE Healthcare, AI680). The obtained images were quantified using the ImageJ software.

Helios (IKZF2) = Helios (IKZF2) (Homo sapiens, UniProt Q96SW2+Q9UKS7); assay: Screening of Helios protein degraders using Nano-Glo HiBiT cell line (HiBiT-IKZF2); assay type: cell-based; conditions: for remaining activity at 10 µM: compound 10 μM, read-out: HiBiT-IKZF2 Residual amount of Helios (%) 10 μM; for remaining activity at 10 µM / remaining activity at 1 µM: 6 hours, HiBiT-Helios knock-in Jurkat cells; for remaining activity at 1 µM: compound 1 μM, read-out: HiBiT-IKZF2 Residual amount of Helios (%) 1 μM
Chain of Helios (IKZF2) (Q9UKS7 whole entry, the tested form may be a part): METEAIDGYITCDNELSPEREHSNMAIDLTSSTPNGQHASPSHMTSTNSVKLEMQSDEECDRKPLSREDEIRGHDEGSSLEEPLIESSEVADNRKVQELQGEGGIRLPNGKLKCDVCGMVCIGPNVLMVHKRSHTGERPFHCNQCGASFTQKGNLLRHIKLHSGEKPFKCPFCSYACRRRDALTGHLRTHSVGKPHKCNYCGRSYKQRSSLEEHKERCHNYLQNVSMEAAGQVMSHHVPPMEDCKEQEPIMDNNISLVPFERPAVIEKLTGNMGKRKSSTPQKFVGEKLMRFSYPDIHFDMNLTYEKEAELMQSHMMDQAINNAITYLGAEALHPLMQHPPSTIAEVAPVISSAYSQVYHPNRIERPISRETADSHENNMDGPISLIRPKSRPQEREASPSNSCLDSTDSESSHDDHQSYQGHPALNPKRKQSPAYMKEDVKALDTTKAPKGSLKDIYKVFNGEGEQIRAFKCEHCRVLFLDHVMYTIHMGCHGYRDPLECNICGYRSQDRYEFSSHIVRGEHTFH
Chain of Helios (IKZF2) (Q96SW2 whole entry, the tested form may be a part): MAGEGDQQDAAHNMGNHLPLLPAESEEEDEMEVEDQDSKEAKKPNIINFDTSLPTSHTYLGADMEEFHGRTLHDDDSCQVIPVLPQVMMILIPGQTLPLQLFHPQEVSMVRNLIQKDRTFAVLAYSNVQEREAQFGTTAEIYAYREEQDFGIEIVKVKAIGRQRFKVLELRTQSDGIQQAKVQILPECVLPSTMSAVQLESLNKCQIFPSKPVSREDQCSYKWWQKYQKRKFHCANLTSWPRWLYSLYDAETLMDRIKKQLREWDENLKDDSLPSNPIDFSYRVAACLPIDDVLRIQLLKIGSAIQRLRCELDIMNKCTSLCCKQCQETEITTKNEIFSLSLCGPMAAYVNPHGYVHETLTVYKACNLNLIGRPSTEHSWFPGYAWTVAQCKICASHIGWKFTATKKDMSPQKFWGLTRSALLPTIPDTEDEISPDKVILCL
Chain of Helios (IKZF2) (Q16531 whole entry partner, the tested form may be a part): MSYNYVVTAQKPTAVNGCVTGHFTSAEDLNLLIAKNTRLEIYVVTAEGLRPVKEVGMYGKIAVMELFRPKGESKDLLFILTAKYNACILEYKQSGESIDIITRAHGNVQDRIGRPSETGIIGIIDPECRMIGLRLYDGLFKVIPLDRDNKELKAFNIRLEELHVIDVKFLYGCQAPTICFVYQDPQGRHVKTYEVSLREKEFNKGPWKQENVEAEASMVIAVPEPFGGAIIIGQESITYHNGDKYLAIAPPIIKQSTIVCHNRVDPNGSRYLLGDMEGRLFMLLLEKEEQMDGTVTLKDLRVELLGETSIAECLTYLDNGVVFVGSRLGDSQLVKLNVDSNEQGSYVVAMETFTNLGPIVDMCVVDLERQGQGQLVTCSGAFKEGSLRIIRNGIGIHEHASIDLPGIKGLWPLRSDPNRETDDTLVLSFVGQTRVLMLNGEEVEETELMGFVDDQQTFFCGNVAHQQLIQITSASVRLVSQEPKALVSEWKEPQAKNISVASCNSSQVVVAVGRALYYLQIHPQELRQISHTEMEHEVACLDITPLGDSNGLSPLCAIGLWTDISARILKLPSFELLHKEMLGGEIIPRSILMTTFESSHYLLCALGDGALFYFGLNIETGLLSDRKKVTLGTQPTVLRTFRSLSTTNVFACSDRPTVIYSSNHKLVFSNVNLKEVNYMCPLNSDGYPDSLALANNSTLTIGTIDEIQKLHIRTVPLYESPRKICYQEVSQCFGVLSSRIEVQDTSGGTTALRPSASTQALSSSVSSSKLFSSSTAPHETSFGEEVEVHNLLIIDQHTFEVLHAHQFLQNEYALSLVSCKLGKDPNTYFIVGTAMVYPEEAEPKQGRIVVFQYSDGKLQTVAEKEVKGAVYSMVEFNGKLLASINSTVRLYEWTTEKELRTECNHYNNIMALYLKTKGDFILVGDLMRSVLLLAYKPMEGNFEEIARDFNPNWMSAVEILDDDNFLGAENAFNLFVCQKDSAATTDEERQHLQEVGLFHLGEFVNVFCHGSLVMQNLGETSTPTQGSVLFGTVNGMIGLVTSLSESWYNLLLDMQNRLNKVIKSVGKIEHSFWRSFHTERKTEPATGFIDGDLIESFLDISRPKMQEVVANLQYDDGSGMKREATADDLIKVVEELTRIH
Procedure: To observe intracellular degradation of Helios, the Nano-Glo HiBiT detection system (Promega) was employed. […] The cells expressing Helios fused with HiBiT were validated using the Nano-Glo HiBiT detection system (Promega) according to a predetermined protocol, isolated as single cells, and cultured in complete medium to establish a monoclonal cell line.
After 6 hours, the Nano-Glo HiBiT detection reagent was added to each well in an equal volume to the cell culture medium and incubated at room temperature for 10 minutes. Following incubation, the HiBiT luminescence signal was measured using a microplate reader (Perkin Elmer).

Chain of IKZF2 (Helios) (Q9UKS7 whole entry): as the sequence (Q9UKS7 whole entry, the tested form may be a part) above
Chain of IKZF2 (Helios) (Q96SW2 whole entry): as the sequence (Q96SW2 whole entry, the tested form may be a part) above
Chain of IKZF2 (Helios) (Q16531 whole entry partner): as the sequence (Q16531 whole entry partner, the tested form may be a part) above

Structure (SMILES)	remaining activity at 10 µM (Helios (IKZF2)) [%]	remaining activity at 1 µM (Helios (IKZF2)) [%]	also measured
Cc1c(C(=O)N2CCC(c3ccc4c(c3F)CN(C3CCC(=O)NC3=O)C4=O)CC2)[nH]c2cc(Cl)c(C#N)cc12 (stereo not drawn) [Compound 119, 6-chloro-2-(4-(2-(2,6-dioxopiperidin-3-yl)-4-fluoro-1-oxoindolin-5-yl)piperidine-1-carbonyl)-3-methyl-1H-indole-5-carbonitrile]	–	–	Dmax (IKZF2 (Helios)): 92%; DC50 (IKZF2 (Helios)): 10 to 100 nM
Cc1c(C(=O)N2CCC(c3ccc4c(c3F)C(=O)N(C3CCC(=O)NC3=O)C4=O)CC2)[nH]c2cc(Cl)ccc12 (stereo not drawn) [Compound 121, 5-(1-(6-chloro-3-methyl-1H-indole-2-carbonyl)piperidin-4-yl)-2-(2,6-dioxopiperidin-3-yl)-4-fluoroisoindoline-1,3-dione]	–	–	DC50 (IKZF2 (Helios)): 100 to 1000 nM
Cc1c(C(=O)N2CCC(c3ccc4c(c3F)CN(C3CCC(=O)NC3=O)C4=O)CC2)[nH]c2cc(C#N)c(F)cc12 (stereo not drawn) [Compound 120, 2-(4-(2-(2,6-dioxopiperidin-3-yl)-4-fluoro-1-oxoindolin-5-yl)piperidine-1-carbonyl)-5-fluoro-3-methyl-1H-indole-6-carbonitrile]	–	–	DC50 (IKZF2 (Helios)): 10 to 100 nM
O=C1CCC(N2Cc3cc(C4CCN(C(=O)c5nc6ccc(Cl)cc6[nH]5)CC4)ccc3C2=O)C(=O)N1 (stereo not drawn) [Comparative Substance 3, 3-(5-(1-(6-chloro-1H-benzo[d]imidazole-2-carbonyl)piperidin-4-yl)-1-oxoinsoindolin-2-yl)piperidine-2,6-dione, reference compound]	100	–	IKZF2 degradation activity (in words, comment on Table 1) (Helios (IKZF2); as shown in Table 1): no IKZF2 degradation activity was observed
COc1cccc2cc(C(=O)N3CCC(c4ccc5c(c4)CN(C4CCC(=O)NC4=O)C5=O)CC3)[nH]c12 (stereo not drawn) [Compound 12, 3-(5-(1-(7-methoxy-1H-indole-2-carbonyl)piperidin-4-yl)-1-oxoinsoindolin-2-yl)piperidine-2,6-dione]	94.1	89.9	–
O=C1CCC(N2Cc3cc(C4CCN(C(=O)c5[nH]c6ccccc6c5Br)CC4)ccc3C2=O)C(=O)N1 (stereo not drawn) [Compound 36, 3-(5-(1-(3-bromo-1H-indole-2-carbonyl)piperidin-4-yl)-1-oxoinsoindolin-2-yl)piperidine-2,6-dione]	40.6	50.9	–
Cc1c(C(=O)N2CCC(c3ccc4c(c3)CN(C3CCC(=O)NC3=O)C4=O)CC2)[nH]c2ccccc12 (stereo not drawn) [Compound 21, 3-(5-(1-(3-methyl-1H-indole-2-carbonyl)piperidin-4-yl)-1-oxoinsoindolin-2-yl)piperidine-2,6-dione]	37.3	37	–
Cc1c(C(=O)N2CCC(c3ccc4c(c3)CN(C3CCC(=O)NC3=O)C4=O)CC2)[nH]c2ccc(Cl)cc12 (stereo not drawn) [Compound 38, 3-(5-(1-(5-chloro-3-methyl-1H-indole-2-carbonyl)piperidin-4-yl)-1-oxoinsoindolin-2-yl)piperidine-2,6-dione]	65.1	80	–
O=C1CCC(N2Cc3cc(C4CCN(C(=O)c5cc6cnc(Cl)cc6[nH]5)CC4)ccc3C2=O)C(=O)N1 (stereo not drawn) [Compound 46, 3-(5-(1-(6-chloro-1H-picolo[3,2-c]pyridine-2-carbonyl)piperidin-4-yl)-1-oxoinsoindolin-2-yl)piperidine-2,6-dione]	47.4	58.1	–
O=C1CCC(N2Cc3cc(C4CCN(C(=O)c5[nH]c6ccccc6c5F)CC4)ccc3C2=O)C(=O)N1 (stereo not drawn) [Compound 37, 3-(5-(1-(3-fluoro-1H-indole-2-carbonyl)piperidin-4-yl)-1-oxoinsoindolin-2-yl)piperidine-2,6-dione]	77.5	99.6	–
Cc1cccc2cc(C(=O)N3CCC(c4ccc5c(c4)CN(C4CCC(=O)NC4=O)C5=O)CC3)[nH]c12 (stereo not drawn) [Compound 16, 3-(5-(1-(7-methyl-1H-indole-2-carbonyl)piperidin-4-yl)-1-oxoinsoindolin-2-yl)piperidine-2,6-dione]	80.4	78.5	–
O=C1CCC(N2Cc3cc(C4CCN(C(=O)c5cc6cccc(F)c6[nH]5)CC4)ccc3C2=O)C(=O)N1 (stereo not drawn) [Compound 19, 3-(5-(1-(7-fluoro-1H-indole-2-carbonyl)piperidin-4-yl)-1-oxoinsoindolin-2-yl)piperidine-2,6-dione]	82.7	80.5	–
O=C1CCC(N2Cc3cc(C#CCC4CCN(C(=O)c5c[nH]c6ccccc56)CC4)ccc3C2=O)C(=O)N1 (stereo not drawn) [Compound 23, 3-(5-(3-(1-(1H-indole-3-carbonyl)piperidin-4-yl)prop-1-yn-1-yl)-1-oxoinsoindolin-2-yl)piperidine-2,6-dione]	99.6	101	–
O=C1CCC(N2Cc3cc(C4CCN(C(=O)c5cc6ccc(C(F)(F)F)cc6[nH]5)CC4)ccc3C2=O)C(=O)N1 (stereo not drawn) [Compound 41, 3-(1-oxo-5-(1-(6-(trifluoromethyl)-1H-indole-2-carbonyl)piperidin-4-yl)isoindolin-2-yl)piperidine-2,6-dione]	38.5	41.7	–
Cc1c(C(=O)N2CCC(c3ccc4c(c3)CN(C3CCC(=O)NC3=O)C4=O)CC2)[nH]c2cc(F)ccc12 (stereo not drawn) [Compound 54, 3-(5-(1-(6-fluoro-3-methyl-1H-indole-2-carbonyl)piperidin-4-yl)-1-oxoinsoindolin-2-yl)piperidine-2,6-dione]	26.8	–	–
Cc1c(C(=O)N2CCC(=Cc3ccc4c(c3)CN(C3CCC(=O)NC3=O)C4=O)CC2)[nH]c2ccccc12 (stereo not drawn) [Compound 27, 3-(5-((1-(3-methyl-1H-indole-2-carbonyl)piperidin-4-ylidene)methyl)-1-oxoinsoindolin-2-yl)piperidine-2,6-dione]	91.7	96.4	–
O=C1CCC(N2Cc3cc(C4CCN(C(=O)c5cc6cccc(Cl)c6[nH]5)CC4)ccc3C2=O)C(=O)N1 (stereo not drawn) [Compound 8, 3-(5-(1-(7-chloro-1H-indole-2-carbonyl)piperidin-4-yl)-1-oxoinsoindolin-2-yl)piperidine-2,6-dione]	109	99.5	–
O=C1CCC(N2Cc3cc(C4CCN(C(=O)c5c[nH]c6cc(Cl)ccc56)CC4)ccc3C2=O)C(=O)N1 (stereo not drawn) [Comparative Substance 2, 3-(5-(1-(6-chloro-1H-indole-3-carbonyl)piperidin-4-yl)-1-oxoinsoindolin-2-yl)piperidine-2,6-dione, reference compound]	100	–	–

The next lines start with results.

remaining activity at 10 µM (Helios (IKZF2)) [%]	remaining activity at 1 µM (Helios (IKZF2)) [%]	Structure (SMILES)	also measured
14.3	–	Cc1c(C(=O)N2CCC(c3ccc4c(c3F)CN(C3CCC(=O)N(COC(=O)C(C)(C)C)C3=O)C4=O)CC2)[nH]c2cc(Cl)ccc12 (stereo not drawn) [Compound 123, (3-(5-(1-(6-chloro-3-methyl-1H-indole-2-carbonyl)piperidin-4-yl)-4-fluoro-1-oxoinsoindolin-2-yl)-2,6-dioxopiperidin-1-yl)methyl pivalate]	–
24.6	38.4	Cc1c(C(=O)N2CCC(c3ccc4c(c3)CN(C3CCC(=O)NC3=O)C4=O)CC2)[nH]c2cc(Cl)c(CN3CCNCC3)cc12 (stereo not drawn) [Compound 109, 3-(5-(1-(6-chloro-3-methyl-5-(piperazin-1-ylmethyl)-1H-indole-2-carbonyl)piperidin-4-yl)-1-oxoinsoindolin-2-yl)piperidine-2,6-dione dichloride]	–
11.2	–	Cc1c(C(=O)N2CCC(c3ccc4c(c3F)CN(C3CCC(=O)NC3=O)C4=O)CC2)[nH]c2c(F)c(C#N)ccc12 (stereo not drawn) [Compound 122, 2-(4-(2-(2,6-dioxopiperidin-3-yl)-4-fluoro-1-oxoindolin-5-yl)piperidine-1-carbonyl)-7-fluoro-3-methyl-1H-indole-6-carbonitrile]	–
36.1	–	Cc1c(C(=O)N2CCC(c3ccc4c(c3)C(=O)N(C3CCC(=O)NC3=O)C4=O)CC2)[nH]c2cc(Cl)ccc12 (stereo not drawn) [Compound 92, 5-(1-(6-chloro-3-methyl-1H-indole-2-carbonyl)piperidin-4-yl)-2-(2,6-dioxopiperidin-3-yl)isoindoline-1,3-dione]	–
8.5	15.2	O=C1CCC(N2Cc3cc(C4CCN(C(=O)c5[nH]c6cc(Cl)ccc6c5CO)CC4)ccc3C2=O)C(=O)N1 (stereo not drawn) [Compound 105, 3-(5-(1-(6-chloro-3-(hydroxymethyl)-1H-indole-2-carbonyl)piperidin-4-yl)-1-oxoinsoindolin-2-yl)piperidine-2,6-dione]	–

From patent US20260216164A1, “INDOLE COMPOUND DECOMPOSING IKZF2, AND USE THEREOF” (KOREA RESEARCH INSTITUTE OF CHEMICAL TECHNOLOGY, priority 2023, published 2026)
